From PubChem BioAssay AID624384 (Sanford-Burnham Center for Chemical Genomics, 2012)
Active and inactive are the calls of the source. No rule for the calls is given here.

Target: Small ubiquitin-related modifier 2 (Homo sapiens) (UniProt P61956)
Test: inhibitors of SUMO2 protein-protein interaction, dose response, selectivity assay for SUMO1 interaction inhibitor project, biochemical, FRET, human SUMO2, uHTS hits (AID 624384)

Sequence of Small ubiquitin-related modifier 2 (Homo sapiens) (P61956 whole entry, looked up): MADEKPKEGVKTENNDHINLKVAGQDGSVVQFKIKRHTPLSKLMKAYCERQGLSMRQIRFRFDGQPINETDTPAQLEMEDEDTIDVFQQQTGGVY

- IC50: > 66 µM (inactive)
Structure (SMILES): C[c-]1[c-](C)[c-](C)[c-](C)[c-]1C.[Fe].c1cc2nccc(N3CCCC3)[c-]2c1 (stereo unspecified)
